Experimental data taken from patent US9789096B2, “Methods and compositions for selective and targeted cancer therapy” (Board of Regents of the University of Texas System, priority 2013, dated 2017).
Read-outs that look alike come from different tables or passages of the source.

How the values were obtained:
Assay type in all cases: cell-based, human
[1] = tested on: H1819; experiment: Cell viability dose-response, H1819; settings: for AC50: NCI-H1819, Table 8, 12-point dose-response starting at 50 micromolar
How it was run: (§1)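 Cells plated at 15% confluence in RPMI-1640 with 5% FBS and 2 mM L-glutamine, treated with compound in a 12-point, 3-fold dilution series from 50 micromolar, in duplicate. ATP measured by Cell Titer Glo after 4 days; IC50 taken from the dose-response curve.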

[2] = tested on: H2073; experiment: Cell viability dose-response, H2073; settings: for AC50: NCI-H2073, Table 8, 12-point dose-response starting at 50 micromolar
Procedure: FIG. 6A. […] Cell viability is plotted vs. compound concentration. Compound was added to cells plated at 15% confluence in 96-well plates in RPMI-1640 media supplemented with 5% Fetal Bovine Serum and 2 mM L-Glutamine. After 4 days of incubation, ATP levels were measured using Cell Titer Glo (Promega). Data are presented as the average of 2 replicates ±SEM.
Selectivity may be measured by the half maximal inhibitory concentration (IC50), which, as used herein, is a measure of the effectiveness of a compound in killing cells. This quantitative measure indicates how much of a particular compound is needed to kill a particular cell population by half (e.g., as indicated by the amount of ATP). […] The IC50 can be determined by constructing a dose-response curve. The lower the IC50, the higher the potency, and the greater the difference between IC50 values for different cell lines (e.g., sensitive lines vs. insensitive lines, and sensitive lines vs. normal lines) the greater the selectivity. […]
With this information, we synthesized and tested a series of small molecules derived in conception from the oxalamide and chromone scaffold including N-acyl ureas, as shown in Tables 6-8. Each compound was tested in a 12-point dose-response study starting at 50 micromolar and decreasing in 3-fold increments to sub-nanomolar concentrations, in duplicate. Additionally, one or more additional cell line was tested in the same way.

[3] = tested on: H2122; experiment: Cell viability dose-response, H2122; settings: for AC50: 12-point dose-response starting at 50 micromolar
How it was run: as §1

[4] = tested on: H2009; experiment: Cell viability dose-response, H2009; settings: 12-point dose-response starting at 50 micromolar; for IC50: NCI-H2009, 3-fold increments, in duplicate, read-out: toxicity data, H2009
How it was run: (§2)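 Read-out is total cellular ATP, measured with CellTiter-Glo after four days of compound treatment. Cells start at 15% confluence in RPMI-1640 containing 5% FBS and 2 mM L-glutamine. Each point averages two replicates (±SEM).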

[5] = tested on: HCC44; experiment: Cell viability dose-response, HCC44; settings: for AC50: 12-point dose-response starting at 50 micromolar; for IC50: HCC44, 12-point dose-response starting at 50 micromolar, 3-fold increments, in duplicate, read-out: toxicity data, HCC44
How it was run: as §2

[6] = Tables 3 and 4, read-out: IC50 (uM) vs indicated non-small cell lung cancer cell line H2073
[7] = Tables 3 and 4, read-out: IC50 (uM) vs indicated non-small cell lung cancer cell line H2122
[8] = Homo sapiens, NCI-H2122, Table 8
[9] = Homo sapiens, NCI-H1819, Tables 3 and 4, read-out: IC50 (uM) vs indicated non-small cell lung cancer cell line H1819
[10] = Homo sapiens, NCI-H2073, Tables 3 and 4, read-out: IC50 (uM) vs indicated non-small cell lung cancer cell line H2073
[11] = Homo sapiens, NCI-H2122, Tables 3 and 4, read-out: IC50 (uM) vs indicated non-small cell lung cancer cell line H2122
[12] = Homo sapiens, NCI-H2073, 12-point dose-response starting at 50 micromolar, 3-fold increments, in duplicate, read-out: toxicity data, H2073
[13] = Homo sapiens, NCI-H2122, 12-point dose-response starting at 50 micromolar, 3-fold increments, in duplicate, read-out: toxicity data, H2122
[14] = Homo sapiens, NCI-H2009, Table 8

C#CCOc1ccc(C(=O)c2ccc(C(=O)Nc3nc4ccc(OC)cc4s3)cc2)cc1 [SW209049-2]
IC50 ([1]; Tables 3 and 4, read-out: IC50 (uM) vs indicated non-small cell lung cancer cell line H1819): 21 µM
IC50 [2, 6]: 18 µM
IC50 [3, 7]: 0.131 µM

O=C1/C(=C/c2c[nH]cn2)COc2cc(OCc3cnn(-c4ccccc4)c3)ccc21 [SW209385-1]
AC50 ([1]; Homo sapiens): 18 µM
AC50 ([2]; Homo sapiens): 12.2 µM
AC50 [3, 8]: ≥ 49.5 µM

O=c1c(Cc2cccc(O)c2)coc2cc(OCc3cnn(-c4ccccc4)c3)ccc12 [SW209381-1]
AC50 ([1]; Homo sapiens): 49.5 µM
AC50 ([2]; Homo sapiens): 49.5 µM
AC50 [3, 8]: 7.03 µM

O=C(Nc1nc2ccccc2[nH]1)c1ccc([N+](=O)[O-])cc1 [SW209206-1]
IC50 [1, 9]: ≥ 49.5 µM
IC50 [2, 10]: 49.5 µM
IC50 [3, 11]: ≥ 49.5 µM

O=C1/C(=C/c2ccccc2C(F)(F)F)COc2cc(OCc3cnn(-c4ccccc4)c3)ccc21 [SW209195-1]
AC50 ([1]; Homo sapiens): 49.5 µM
AC50 ([2]; Homo sapiens): 0.39 µM
AC50 [3, 8]: 0.085 µM

O=c1c(Cc2ccsc2)coc2cc(OCc3cnn(-c4ccccc4)c3)ccc12 [SW209379-1]
AC50 ([1]; Homo sapiens): 49.5 µM
AC50 ([2]; Homo sapiens): 0.087 µM
AC50 [3, 8]: 0.082 µM

O=C(CCc1ccc(Br)cc1)Cn1ccnc1 [SW209201-1]
AC50 ([1]; Homo sapiens): 49.5 µM
AC50 ([2]; Homo sapiens): 49.5 µM
AC50 [3, 8]: ≥ 49.5 µM

C#CCOC(=O)Nc1ccc(C(=O)Nc2nc3ccccc3s2)cc1 [SW209168-1]
IC50 [1, 9]: 40.1 µM
IC50 [2, 10]: 39.2 µM
IC50 [3, 11]: 0.029 µM

C#CCNC(=O)c1ccc(C(=O)Nc2nc3ccccc3s2)cc1 [SW209082-1]
IC50 [1, 9]: 45.5 µM
IC50 [2, 10]: 45.5 µM
IC50 [3, 11]: 0.1 µM

C#CCOc1ccc(C(=O)c2ccc(NC(=O)C(=O)NCCc3ccccc3)cc2)cc1 [SW211560-1]
IC50 ([1]; Homo sapiens, NCI-H1819, 12-point dose-response starting at 50 micromolar, 3-fold increments, in duplicate, read-out: toxicity data, H1819): ≥ 49.5 µM
IC50 [2, 12]: 22.7 µM
IC50 [3, 13]: ≥ 49.5 µM

O=C(Nc1nc2cnccc2s1)c1ccccc1 [SW209562-1]
IC50 [1, 9]: ≥ 49.5 µM
IC50 [2, 10]: 49.5 µM
IC50 [3, 11]: ≥ 49.5 µM

NC(=O)c1ccc(C(=O)Nc2nc3ccccc3s2)cc1 [SW209411-1]
IC50 [1, 9]: 3.1 µM
IC50 [2, 10]: 27.8 µM
IC50 [3, 11]: ≥ 49.5 µM

O=C(O)c1ccc(C(=O)Nc2nc3ccccc3s2)cc1 [SW209412-1]
IC50 [1, 9]: ≥ 49.5 µM
IC50 [2, 10]: 49.5 µM
IC50 [3, 11]: ≥ 49.5 µM

O=C1/C(=C/c2ccc(F)cc2)COc2cc(OCc3cnn(-c4ccccc4)c3)ccc21 [SW209194-1]
AC50 ([1]; Homo sapiens): 49.5 µM
AC50 ([2]; Homo sapiens): 49.5 µM
AC50 [3, 8]: 0.876 µM

O=c1c(Cc2ccc(Cl)nc2)coc2cc(OCc3cnn(-c4ccccc4)c3)ccc12 [SW209382-1]
AC50 ([1]; Homo sapiens): 49.5 µM
AC50 ([2]; Homo sapiens): 0.244 µM
AC50 [3, 8]: 0.325 µM

COC(=O)c1ccc(C(=O)Nc2nc3ccc(N)cc3s2)cc1 [SW001296-3]
IC50 [1, 9]: 28.6 µM
IC50 [2, 6]: 49.5 µM
IC50 [3, 7]: 18.5 µM

Cc1ccccc1/C=C1\COc2cc(OCc3cnn(-c4ccccc4)c3)ccc2C1=O [SW209200-1]
AC50 ([1]; Homo sapiens): 49.5 µM
AC50 ([2]; Homo sapiens): 49.5 µM
AC50 [3, 8]: 0.874 µM

O=C(c1ccccc1)c1ccc(NC(=O)c2nc3ccccc3s2)cc1 [SW209091-1]
IC50 [1, 9]: 9.03 µM
IC50 [2, 10]: 24 µM
IC50 [3, 11]: 0.01 µM

O=C(c1ccccc1)c1ccc(/C(=N/c2nc3ccc(OCc4ccc(Cl)cc4)cc3s2)OCc2ccc(Cl)cc2)cc1 [SW211559-1]
IC50 [1, 9]: 0.9 µM
IC50 [2, 10]: 0.165 µM
IC50 [3, 11]: 0.086 µM

COc1ccc(CCNC(=O)C(=O)Nc2ccc(Oc3ccc(Br)cc3)cc2)cc1 [SW209075-1]
IC50 [2, 12]: 8.07 µM
IC50 [3, 13]: 0.029 µM

COc1ccc(CCNC(=O)C(=O)Nc2ccc(COc3ccc(Br)cc3)cc2)cc1 [SW209050-1]
IC50 [2, 12]: 25.9 µM
IC50 [3, 13]: 0.031 µM

COc1ccc(CCNC(=O)C(=O)Nc2ccc(OCc3ccc(Br)cc3)cc2)cc1 [SW209048-1]
IC50 [2, 12]: ≥ 49.5 µM
IC50 [3, 13]: 0.157 µM

O=c1c(Oc2cccc(Cl)c2)coc2cc(OCc3cnn(-c4ccccc4)c3)ccc12 [SW 208594-1]
AC50 [4, 14]: 16.5 µM
AC50 [3, 8]: 0.22 µM
AC50 ([5]; Homo sapiens, HCC44, Table 8): 0.08 µM

COc1ccc(CCNC(=O)NC(=O)c2cccc(-c3ccccc3)c2)cc1 [SW208394-1-A]
IC50 ([4]; Homo sapiens): ≥ 49.5 µM
IC50 [3, 13]: ≥ 49.5 µM
IC50 ([5]; Homo sapiens): ≥ 49.5 µM

O=c1c(-c2ccc(Cl)cc2)coc2cc(OCc3cnn(-c4ccccc4)c3)ccc12 [SW208738]
AC50 [4, 14]: 49.5 µM
AC50 [3, 8]: ≥ 49.5 µM
AC50 ([5]; Homo sapiens, HCC44, Table 8): 49.5 µM

O=c1c(Oc2ccccc2F)coc2cc(OCc3cnn(-c4ccccc4)c3)ccc12 [SW043139-2-A]
AC50 ([4]; Table 8): 15.9 µM
AC50 ([3]; Table 8): 0.292 µM
AC50 ([5]; Table 8): 49.5 µM

O=c1c(-c2cc(C(F)(F)F)cc(C(F)(F)F)c2)coc2cc(OCc3cnn(-c4ccccc4)c3)ccc12 [SW208763-1]
AC50 [4, 14]: 3.26 µM
AC50 [3, 8]: 0.08 µM
AC50 ([5]; Homo sapiens, HCC44, Table 8): 1.36 µM

COc1ccc(CCNC(=O)NC(=O)c2cccc(-c3cccc(Cl)c3)c2)cc1 [SW208392-1-A]
IC50 ([4]; Homo sapiens): ≥ 49.5 µM
IC50 [3, 13]: 6.71 µM
IC50 ([5]; Homo sapiens): ≥ 49.5 µM

COc1ccc(CCCC(=O)Nc2ccc(C(=O)c3ccccc3)cc2)cc1 [SW208470-1-A]
IC50 ([4]; Homo sapiens): 34.4 µM
IC50 [3, 13]: ≥ 49.5 µM
IC50 ([5]; Homo sapiens): 34.8 µM

COc1ccc(CCNC(=O)NC(=O)c2ccc(COc3ccccc3)cc2)cc1 [SW208458-1-A]
IC50 ([4]; Homo sapiens): 0.099 µM
IC50 [3, 13]: 0.01 µM
IC50 ([3]; Homo sapiens, NCI-H2122, Table 9, competitor, read-out: IC50 to H2122 cells): 0.00425 µM
IC50 ([5]; Homo sapiens): 0.008 µM

O=c1c(-c2ccccc2)coc2cc(OCc3cnn(-c4ccccc4)c3)ccc12 [SW 208631-1]
AC50 [4, 14]: 49.5 µM
AC50 [3, 8]: 0.28 µM
AC50 ([5]; Homo sapiens, HCC44, Table 8): 49.5 µM

O=c1c(-c2ccc(F)cc2F)coc2cc(OCc3cnn(-c4ccccc4)c3)ccc12 [SW208760-1]
AC50 [4, 14]: 20.7 µM
AC50 [3, 8]: 0.11 µM
AC50 ([5]; Homo sapiens, HCC44, Table 8): 49.5 µM

COc1ccc(CCNC(=O)N(C)C(=O)c2ccc(C(=O)c3ccccc3)cc2)cc1 [SW208566-1-A]
IC50 ([4]; Homo sapiens): 10.3 µM
IC50 [3, 13]: 6.15 µM
IC50 ([5]; Homo sapiens): 7.76 µM

COc1ccc(CCN(C)C(=O)N(C)C(=O)c2ccc(C(=O)c3ccccc3)cc2)cc1 [SW208567-1-A]
IC50 ([4]; Homo sapiens): 16.5 µM
IC50 [3, 13]: 15.7 µM
IC50 ([5]; Homo sapiens): 8 µM

COc1ccc(CCNC(=O)NC(=O)c2ccc(OC)cc2)cc1 [SW208402-1-A]
IC50 ([4]; Homo sapiens): ≥ 49.5 µM
IC50 [3, 13]: 1.03 µM
IC50 ([5]; Homo sapiens): ≥ 49.5 µM

COc1ccc(CCNC(=O)NC(=O)c2cccc(Br)c2)cc1 [SW208389-1-A]
IC50 ([4]; Homo sapiens): 35.6 µM
IC50 [3, 13]: ≥ 49.5 µM
IC50 ([5]; Homo sapiens): ≥ 49.5 µM
